Columns and labels:
[1] = human, in vivo; cited from earlier work
[2] = animal study; cited from earlier work
[3] = biological target: CYP2D6 (Homo sapiens, UniProt P10635); conditions: cited from earlier work
[4] = Two-compartment PK model of osanetant fit to the Sanofi single-dose study; set-up: species or system human; conditions: two-compartment model parameter
Excerpt: Osanetant (SR 142801) is an NK3 receptor antagonist originally identified by Sanofi. Patacchini R. et al. 1995, Eur J Pharmacol 278 (1):17-25; Nguyen-Le X. K. et al. 1996, Pharmacology 52 (5):283-91; Beaujouan J. C. et al. 1997, Eur J Pharmacol 319 (2-3):307-16; Emonds-Alt X. et al. 1995, Life Sci 56 (1):P127-32). Osanetant pharmacokinetics (PK) was derived from a Study Report by Sanofi describing concentration curves and PK summary data. A two-compartment PK model was derived from the data the concentration: time curves. […] A two-compartment pharmacokinetic model was fit to the single-dose study in the Sanofi Study report.

[5] = biological target: CYP3A4 (Homo sapiens, UniProt P08684); conditions: liver; cited from earlier work
CYP3A4, sequence (P08684 whole entry): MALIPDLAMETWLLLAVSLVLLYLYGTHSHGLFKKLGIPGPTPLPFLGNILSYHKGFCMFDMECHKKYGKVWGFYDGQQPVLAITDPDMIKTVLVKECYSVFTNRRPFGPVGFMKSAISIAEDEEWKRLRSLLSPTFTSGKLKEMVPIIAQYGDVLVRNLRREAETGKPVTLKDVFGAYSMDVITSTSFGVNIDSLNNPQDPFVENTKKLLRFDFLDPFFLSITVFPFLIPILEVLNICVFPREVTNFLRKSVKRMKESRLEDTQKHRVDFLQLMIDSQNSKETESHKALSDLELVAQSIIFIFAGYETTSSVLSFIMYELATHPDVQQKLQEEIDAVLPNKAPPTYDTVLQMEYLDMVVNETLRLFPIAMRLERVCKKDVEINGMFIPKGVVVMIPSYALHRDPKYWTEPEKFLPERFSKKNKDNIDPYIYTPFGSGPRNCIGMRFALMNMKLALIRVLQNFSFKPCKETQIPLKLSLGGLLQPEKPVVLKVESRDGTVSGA

[6] = oral dosing, set in the multiple-dose PK model; cited from earlier work

CYP2D6, sequence (P10635 whole entry): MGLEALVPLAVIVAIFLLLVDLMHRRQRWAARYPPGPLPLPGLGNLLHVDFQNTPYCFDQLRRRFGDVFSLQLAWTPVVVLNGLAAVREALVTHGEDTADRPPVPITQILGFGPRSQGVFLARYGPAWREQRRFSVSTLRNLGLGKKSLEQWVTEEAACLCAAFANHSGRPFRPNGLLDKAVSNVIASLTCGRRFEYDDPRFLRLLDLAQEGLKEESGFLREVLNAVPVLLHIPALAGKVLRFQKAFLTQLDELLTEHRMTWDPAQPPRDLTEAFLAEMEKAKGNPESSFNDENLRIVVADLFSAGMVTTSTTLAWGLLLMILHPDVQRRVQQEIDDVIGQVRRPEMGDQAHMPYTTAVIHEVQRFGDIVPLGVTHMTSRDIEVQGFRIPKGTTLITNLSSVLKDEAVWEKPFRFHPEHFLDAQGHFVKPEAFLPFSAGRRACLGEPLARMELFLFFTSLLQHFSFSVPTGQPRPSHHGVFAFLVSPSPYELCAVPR

SMILES: CCNC(=O)[C@@H]1CCCN1C(=O)[C@H](CCCNC(=N)N)NC(=O)[C@H](CC(C)C)NC(=O)[C@@H](CC(C)C)NC(=O)[C@H](Cc1ccc(O)cc1)NC(=O)[C@H](CO)NC(=O)[C@H](Cc1c[nH]c2ccccc12)NC(=O)[C@H](Cc1c[nH]cn1)NC(=O)[C@@H]1CCC(=O)N1 [leuprolide]
- patients who experience increased frequency and/or duration of VMS [1]: about 80%

SMILES: CC(=O)N(C)C1(c2ccccc2)CCN(CCC[C@]2(c3ccc(Cl)c(Cl)c3)CCCN(C(=O)c3ccccc3)C2)CC1 [osanetant, (R)—N-(1-(3-(1-benzoyl-3-(3,4-dichlorophenyl)piperidin-3-yl)propyl)-4-phenylpiperidin-4-yl)-N-methylacetamide]
- Brain/plasma concentration [2]: 0.8
- CYP2D6 activity [3]: inhibits CYP2D6 activity
- Blood_Liver_transport_k [4]: 0.011 min⁻¹
- Q [4]: 13.9 L/min
- Vol_central [4]: 620 L
- Vol_periph [4]: 1768 L
- ka [4]: 0.039 min⁻¹
- clearance mechanism [5]: CYP3A4 metabolism in the liver is the primary clearance mechanism
- Bioavailability [6]: 40%
